Source: US9994587B2, “HIV protease inhibitors” (priority 2014, dated 2018)
pIC50: −log10 of the molar value.

Target: T1, wildtype HIV-1 protease (Human immunodeficiency virus type 1 group M subtype B, UniProt P04585)
T1 construct: preincubated with the HIV-1 protease (wild type) enzyme in assay buffer; made in house; host or cells: Escherichia coli
Assay: Assay for inhibition of microbial expressed HIV protease (Pepcleav)
Format: biochemical
Settings: wild type HIV-1 protease 20 pM, peptide substrate 400 micromolar, pH 5.5; mean of at least two independent experiments
Summary of the method: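 E. coli-expressed enzyme preincubated with inhibitor 30 min at room temperature in 50 mM sodium acetate pH 5.5, 100 mM NaCl, 0.1% BSA, then 400 micromolar peptide substrate added with 20 picomolar protease (final), 1 h at 30° C. Product quantified by LC-MS/MS peak area after formic acid/indinavir quench.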

| SMILES | pIC50 |
| --- | --- |
| COC(=O)N[C@H](C(=O)Nc1ccccc1CC[C@@H]1CNC[C@@H](CSc2ccc(Cl)cc2)O1)[C@@H](c1ccccc1)c1ccnc2ccccc12 [Example 68, methyl[(2S,3S)-1-[(2-{2-[(2R,6S)-6-{[(4-chlorophenyl)sulfanyl]methyl}morpholin-2-yl]ethyl}phenyl)amino]-1-oxo-3-phenyl-3-(quinolin-4-yl)propan-2-yl]carbamate] | 10.52 |
| COC(=O)N[C@H](C(=O)Nc1ccccc1CC[C@@H]1CNC[C@@H](CSc2ccc(Cl)cc2)O1)[C@H](c1ccccc1)c1ccncc1 [Example 69, (βR)-N-(2-{2-[(2R,6S)-6-{[(4-chlorophenyl)sulfanyl]methyl}morpholin-2-yl]ethyl}phenyl)-Nα-(methoxycarbonyl)-β-pyridin-4-yl-L-phenylalaninamide] | 9.52 |
| COC(=O)N[C@@H](C(=O)Nc1ccccc1CC[C@@H]1CNC[C@@H](CSc2ccc(Cl)cc2)O1)[C@H](c1ccccc1)c1ccncc1 [Example 70, (βR)-N-(2-{2-[(2R,6S)-6-{[(4-chlorophenyl)sulfanyl]methyl}morpholin-2-yl]ethyl}phenyl)-Nα-(methoxycarbonyl)-β-pyridin-4-yl-D-phenylalaninamide] | 9.13 |
| COC(=O)N[C@H](C(=O)Nc1cccc(F)c1CC[C@@H]1CNC[C@@H](COc2ccc(C#N)cc2)O1)C(c1ccccc1)c1ccccc1 [Example 71, N-[2-(2-{(2R,6S)-6-[(4-cyanophenoxy)methyl]morpholin-2-yl}ethyl)-3-fluorophenyl]-Nα-(methoxycarbonyl)-β-phenyl-L-phenylalaninamide] | 8.13 |
| COC(=O)N[C@H](C(=O)Nc1cc(F)ccc1CC[C@@H]1CNC[C@@H](COc2ccc(C#N)cc2)O1)C(c1ccccc1)c1ccccc1 [Example 72, N-[2-(2-{(2R,6S)-6-[(4-cyanophenoxy)methyl]morpholin-2-yl}ethyl)-5-fluorophenyl]-Nα-(methoxycarbonyl)-β-phenyl-L-phenylalaninamide] | 7.64 |
| COC(=O)N[C@H](C(=O)Nc1cccc(F)c1CC[C@@H]1CNC[C@@H](CSc2ccc(Cl)cc2)O1)C(c1ccccc1)c1ccccc1 [Example 73, N-(2-{2-[(2R,6S)-6-{[(4-chlorophenyl)sulfanyl]methyl}morpholin-2-yl]ethyl}-3-fluorophenyl)-Nα-(methoxycarbonyl)-β-phenyl-L-phenylalaninamide] | 9.05 |
| COC(=O)N[C@H](C(=O)Nc1ccc(F)cc1CC[C@@H]1CNC[C@@H](COc2cccc(C#N)c2)O1)C(c1ccccc1)c1ccccc1 [Example 74, N-[2-(2-{(2R,6S)-6-[(3-cyanophenoxy)methyl]morpholin-2-yl}ethyl)-4-fluorophenyl]-Nα-(methoxycarbonyl)-β-phenyl-L-phenylalaninamide] | 7.41 |
| COC(=O)N[C@H](C(=O)Nc1ccc(F)cc1CC[C@@H]1CNC[C@@H](COc2ccc(C#N)cc2)O1)C(c1ccccc1)c1ccccc1 [Example 75, N-[2-(2-{(2R,6S)-6-[(4-cyanophenoxy)methyl]morpholin-2-yl}ethyl)-4-fluorophenyl]-Nα-(methoxycarbonyl)-β-phenyl-L-phenylalaninamide] | 7.34 |
| COC(=O)N[C@H](C(=O)Nc1c(F)cccc1CC[C@@H]1CNC[C@@H](COc2ccc(C#N)cc2)O1)C(c1ccccc1)c1ccccc1 [Example 76, N-[2-(2-{(2R,6S)-6-[(4-cyanophenoxy)methyl]morpholin-2-yl}ethyl)-6-fluorophenyl]-Nα-(methoxycarbonyl)-β-phenyl-L-phenylalaninamide] | 8.04 |
| COC(=O)N[C@H](C(=O)Nc1c(F)cccc1CC[C@@H]1CNC[C@@H](CSc2nc3cc(F)c(Cl)cc3[nH]2)O1)C(c1ccccc1)c1ccccc1 [Example 77, N-(2-{2-[(2R,6S)-6-{[(6-chloro-5-fluoro-1H-benzimidazol-2-yl)sulfanyl]methyl}morpholin-2-yl]ethyl}-6-fluorophenyl)-Nα-(methoxycarbonyl)-β-phenyl-L-phenylalaninamide] | 7.96 |
| COC(=O)N[C@H](C(=O)Nc1cc(F)cnc1CC[C@@H]1CNC[C@@H](COc2ccc(C#N)cc2)O1)C(c1ccccc1)c1ccccc1 [Example 78, N-[2-(2-{(2R,6S)-6-[(4-cyanophenoxy)methyl]morpholin-2-yl}ethyl)-5-fluoropyridin-3-yl]-Nα-(methoxycarbonyl)-β-phenyl-L-phenylalaninamide] | 6.82 |
| COC(=O)N[C@H](C(=O)Nc1cncnc1CC[C@@H]1CNC[C@@H](COc2ccc(C#N)cc2)O1)C(c1ccccc1)c1ccccc1 [Example 79, N-[4-(2-{(2R,6S)-6-[(4-cyanophenoxy)methyl]morpholin-2-yl}ethyl)pyrimidin-5-yl]-Nα-(methoxycarbonyl)-β-phenyl-L-phenylalaninamide] | 6.92 |
| COC(=O)N[C@H](C(=O)Nc1cccnc1CC[C@@H]1CNC[C@@H](CSc2ncccc2Cl)O1)C(c1ccccc1)c1ccccc1 [Example 80, N-(2-{2-[(2R,6S)-6-{[(3-chloropyridin-2-yl)sulfanyl]methyl}morpholin-2-yl]ethyl}pyridin-3-yl)-Nα-(methoxycarbonyl)-β-phenyl-L-phenylalaninamide] | 7.24 |
| COC(=O)N[C@H](C(=O)Nc1cnccc1CC[C@@H]1CNC[C@@H](COc2ccc(C#N)cc2)O1)C(c1ccccc1)c1ccccc1 [Example 81, N-[4-(2-{(2R,6S)-6-[(4-cyanophenoxy)methyl]morpholin-2-yl}ethyl)pyridin-3-yl]-Nα-(methoxycarbonyl)-β-phenyl-L-phenylalaninamide] | 7.28 |
| COC(=O)N[C@H](C(=O)Nc1cncc(F)c1CC[C@@H]1CNC[C@@H](COc2ccc(C#N)cc2)O1)C(c1ccccc1)c1ccccc1 [Example 82, Methyl[(1S)-2-{[4-(2-{(2R,6S)-6-[(4-cyanophenoxy)methyl]morpholin-2-yl}ethyl)-5-fluoropyridin-3-yl]amino}-1-(diphenylmethyl)-2-oxoethyl]carbamate] | 8.01 |
| COC(=O)N[C@H](C(=O)Nc1nccnc1CC[C@@H]1CNC[C@@H](CSc2ccc(Cl)cc2)O1)C(c1ccccc1)c1ccccc1 [Example 83, methyl N-[(1S)-1-benzhydryl-2-[[3-[2-[(2R,6S)-6-[(4-chlorophenyl)sulfanylmethyl]morpholin-2-yl]ethyl]pyrazin-2-yl]amino]-2-oxo-ethyl]carbamate] | 7.57 |
| COC(=O)N[C@H](C(=O)Nc1nccnc1CC[C@@H]1CNC[C@@H](COc2ccc(C#N)cc2)O1)C(c1ccccc1)c1ccccc1 [Example 84, methyl N-[(1S)-1-benzhydryl-2-[[3-[2-[(2R,6S)-6-[(4-cyanophenoxy)methyl]morpholin-2-yl]ethyl]pyrazin-2-yl]amino]-2-oxo-ethyl]carbamate] | 6.37 |
| COC(=O)N[C@H](C(=O)Nc1ncccc1CC[C@@H]1CNC[C@@H](COc2ccc(C#N)cc2)O1)C(c1ccccc1)c1ccccc1 [Example 85, N-[3-(2-{(2R,6S)-6-[(4-cyanophenoxy)methyl]morpholin-2-yl}ethyl)pyridin-2-yl]-Nα-(methoxycarbonyl)-β-phenyl-L-phenylalaninamide] | 7.06 |
| COC(=O)N[C@H](C(=O)Nc1c(CC[C@@H]2CNC[C@@H](COc3ccc(C#N)cc3)O2)cc[nH]c1=O)C(c1ccccc1)c1ccccc1 [Example 86, N-[4-(2-{(2R,6S)-6-[(4-cyanophenoxy)methyl]morpholin-2-yl}ethyl)-2-oxo-1,2-dihydropyridin-3-yl]-Nα-(methoxycarbonyl)-β-phenyl-L-phenylalaninamide] | 8.39 |
